Experimental data from US20230055961A1, “PENTAFLUOROBENZENESULFONAMIDE DERIVATIVES AND USES THEREOF” (Dunad Therapeutics Ltd., priority 2019, published 2023).
Read-outs that look alike come from different tables or passages of the source. One block for each compound: values may come before it.

Experiments:
[1] = target: T1, BTK (Homo sapiens, UniProt Q06187); experiment: BTK washout experiment (residual activity after 400-fold dilution); format: biochemical; settings: 6-h incubation of 50 nM BTK with 177 nM compound, relative to DMSO alone
Method: After a 3-h incubation of 40 nM BTK in the presence of 296 nM of compound Compound 5-1, a 400-fold dilution was performed to remove excess inhibitor.
By way of contrast, a “washout” experiment performed with ARQ-531 gives a very different result, because this compound lacks a warhead and is known to inhibit BTK reversibly. After a 6-h incubation of 50 nM BTK in the presence of 177 nM of ARQ-531, a 400-fold dilution was performed to remove excess inhibitor. […] This indicates to one of ordinary skill in the art that the enzyme was not inhibited irreversibly during the incubation with ARQ-531.

[2] = target: T2, JAK3 (Homo sapiens, UniProt P52333); experiment: In vitro JAK3 inhibition, biochemical IC50 (no preincubation); settings: Table 8
T2 sequence (P52333 1-1124): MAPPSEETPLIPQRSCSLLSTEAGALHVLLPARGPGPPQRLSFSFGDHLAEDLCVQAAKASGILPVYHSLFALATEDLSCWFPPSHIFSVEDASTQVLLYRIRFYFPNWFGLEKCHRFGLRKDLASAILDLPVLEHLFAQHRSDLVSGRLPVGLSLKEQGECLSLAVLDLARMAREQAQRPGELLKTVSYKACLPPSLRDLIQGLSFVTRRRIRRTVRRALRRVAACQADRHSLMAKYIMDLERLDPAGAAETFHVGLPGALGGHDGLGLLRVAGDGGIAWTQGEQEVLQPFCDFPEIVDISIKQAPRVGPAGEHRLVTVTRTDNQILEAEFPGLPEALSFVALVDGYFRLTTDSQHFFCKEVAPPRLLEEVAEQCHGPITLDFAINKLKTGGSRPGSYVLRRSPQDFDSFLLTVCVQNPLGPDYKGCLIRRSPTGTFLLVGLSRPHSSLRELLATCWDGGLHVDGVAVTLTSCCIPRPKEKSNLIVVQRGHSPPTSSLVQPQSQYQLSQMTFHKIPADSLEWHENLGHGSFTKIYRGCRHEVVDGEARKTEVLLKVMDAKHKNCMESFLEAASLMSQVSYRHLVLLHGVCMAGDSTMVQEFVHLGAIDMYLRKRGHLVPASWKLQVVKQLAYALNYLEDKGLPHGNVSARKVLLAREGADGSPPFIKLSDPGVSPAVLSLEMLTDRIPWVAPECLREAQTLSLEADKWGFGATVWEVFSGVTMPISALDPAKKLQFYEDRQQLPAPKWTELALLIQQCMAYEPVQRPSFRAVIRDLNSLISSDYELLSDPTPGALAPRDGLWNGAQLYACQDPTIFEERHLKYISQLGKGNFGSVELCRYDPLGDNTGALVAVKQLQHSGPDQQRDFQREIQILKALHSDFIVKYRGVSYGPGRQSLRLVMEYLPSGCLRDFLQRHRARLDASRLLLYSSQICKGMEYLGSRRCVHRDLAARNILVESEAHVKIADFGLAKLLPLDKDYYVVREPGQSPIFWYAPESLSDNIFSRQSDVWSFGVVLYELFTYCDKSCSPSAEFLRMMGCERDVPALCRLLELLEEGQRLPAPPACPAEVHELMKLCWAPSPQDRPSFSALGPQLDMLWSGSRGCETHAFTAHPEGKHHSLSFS
Method: (§1) In vitro BTK and JAK3 inhibition studies are shown in Table 7 and Table 8 (no preincubation).

[3] = target: T1, BTK; experiment: Total BTK degradation assay (Total BTK-HTRF) in RAMOS cells; format: cell-based
Method: A Total BTK-HTRF assay (Cisbio Total BTK cat #63ADK064PEG) was performed to quantitate the ability of test compounds to degrade BTK protein levels in RAMOS cells. This total protein assay monitors the steady state protein level in a sandwich assay format using two different specific antibodies after lysis of the cell-membrane. The antibodies recognise two different epitopes on BTK and are labelled with Eu3^+-cryptate (donor) and d2 (acceptor). […] The specific signal modulates positively in proportion to the total concentration of BTK.
In order to evaluate the degradation of BTK by test compounds, a total BTK degradation assay was performed (Cisbio Total BTK cat #63ADK064PEG). The frozen stock solutions of the two different BTK antibodies were diluted 20-fold with the detection buffer and pre-mixed before use in the assay. Supplemented lysis buffer (4×) was prepared by diluting the blocking reagent solution 25-fold with lysis buffer (4×) and mixing gently.
were plated at a density of 50K cells/well (8 uL) in RPMI medium with 10% FBS into 384-well white detection plates. […] The plate was read on an Biotek Synergy Neo2 plate reader using 330 nm excitation, 620 nm-donor emission and 670 nm-acceptor emission.

[4] = target: FGFR1 (Homo sapiens, UniProt P11362); experiment: In vitro kinase inhibition studies (Table 9), FGFR1; format: biochemical
[5] = target: FGFR4 (Homo sapiens, UniProt P22455); experiment: In vitro kinase inhibition studies (Table 9), FGFR4; format: biochemical
[6] = system: RL cells; experiment: IC50 of Ibrutinib analogs against human cancer cells, RL cells (Table 14); format: cell-based; settings: Homo sapiens, RL
Method: 1×10^4 cells (NHF cells)/well are plated in 96-well assay plates in culture medium. […] After 24 hrs, test compounds and vehicle controls are added to appropriate wells so the final volume is 100p in each well. The cells are cultured for the desired test exposure period (72 hrs) at 37° C. and 5% CO2. The assay plates are removed from 37° C. incubator and 20 μl/well of CellTiter-Blue® Reagent is added. The plates are incubated using standard cell culture conditions for 1-4 hours and the plates are shaken for 10 seconds and record fluorescence at 560/590 nm. […] Therapeutic index=(IC50 human fibroblasts/IC50 […] )

[7] = system: normal pooled human fibroblasts; experiment: IC50 of Ibrutinib analogs against normal human cells, pooled human fibroblasts (Table 14); format: cell-based; settings: Fibroblast, TABLE 9
Method: Anti-cancer efficacy of exemplary compounds of this application is assessed in vitro in different cancer cell lines. Cell viability is examined following treatment at various concentration of inhibitor (0.097656-50 μM) using a cell Titer-Blue cell viability assay. 1×10^4 cells (NHF cells)/well are plated in 96-well assay plates in culture medium. All cells are grown in DMEM, IMDM and RPMI-1640 supplemented with 10% FBS. After 24 hrs, test compounds and vehicle controls are added to appropriate wells so the final volume is […] in each well. The cells are cultured for the desired test exposure period (72 hrs) at 37° C. and 5% CO2. The assay plates are removed from 37° C. incubator and 20 μl/well of CellTiter-Blue® Reagent is added. The plates are incubated using standard cell culture conditions for 1-4 hours and the plates are shaken for 10 seconds and record fluorescence at 560/590 nm.
Therapeutic index=(IC50 human fibroblasts/IC50 RLcells)

[8] = target: T1, BTK; experiment: In vitro BTK inhibition, biochemical IC50 (no preincubation); settings: Table 8
Method: IC50 Values (nM) for the Inhibition of BTK Activity
as §1

T1 sequence (Q06187 whole entry, species assumed): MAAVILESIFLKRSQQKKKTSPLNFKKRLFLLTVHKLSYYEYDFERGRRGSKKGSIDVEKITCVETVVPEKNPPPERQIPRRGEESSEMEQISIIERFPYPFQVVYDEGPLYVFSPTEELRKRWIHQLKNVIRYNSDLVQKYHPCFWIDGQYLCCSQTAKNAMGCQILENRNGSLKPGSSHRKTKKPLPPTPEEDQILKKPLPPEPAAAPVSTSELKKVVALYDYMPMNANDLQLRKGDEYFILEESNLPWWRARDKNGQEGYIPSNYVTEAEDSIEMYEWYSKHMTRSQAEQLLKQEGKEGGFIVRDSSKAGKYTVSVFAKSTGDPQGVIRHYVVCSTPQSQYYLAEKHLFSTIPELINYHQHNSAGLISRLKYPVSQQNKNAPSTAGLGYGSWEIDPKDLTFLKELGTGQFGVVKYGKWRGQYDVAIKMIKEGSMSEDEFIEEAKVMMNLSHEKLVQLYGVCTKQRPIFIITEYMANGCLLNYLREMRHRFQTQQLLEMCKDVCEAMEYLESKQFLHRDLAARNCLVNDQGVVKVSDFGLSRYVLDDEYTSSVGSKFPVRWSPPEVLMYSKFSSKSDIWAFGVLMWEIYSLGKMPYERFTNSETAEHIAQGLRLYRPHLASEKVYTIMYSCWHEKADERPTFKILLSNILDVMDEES
Chain of FGFR1 (P11362 22-822, species assumed): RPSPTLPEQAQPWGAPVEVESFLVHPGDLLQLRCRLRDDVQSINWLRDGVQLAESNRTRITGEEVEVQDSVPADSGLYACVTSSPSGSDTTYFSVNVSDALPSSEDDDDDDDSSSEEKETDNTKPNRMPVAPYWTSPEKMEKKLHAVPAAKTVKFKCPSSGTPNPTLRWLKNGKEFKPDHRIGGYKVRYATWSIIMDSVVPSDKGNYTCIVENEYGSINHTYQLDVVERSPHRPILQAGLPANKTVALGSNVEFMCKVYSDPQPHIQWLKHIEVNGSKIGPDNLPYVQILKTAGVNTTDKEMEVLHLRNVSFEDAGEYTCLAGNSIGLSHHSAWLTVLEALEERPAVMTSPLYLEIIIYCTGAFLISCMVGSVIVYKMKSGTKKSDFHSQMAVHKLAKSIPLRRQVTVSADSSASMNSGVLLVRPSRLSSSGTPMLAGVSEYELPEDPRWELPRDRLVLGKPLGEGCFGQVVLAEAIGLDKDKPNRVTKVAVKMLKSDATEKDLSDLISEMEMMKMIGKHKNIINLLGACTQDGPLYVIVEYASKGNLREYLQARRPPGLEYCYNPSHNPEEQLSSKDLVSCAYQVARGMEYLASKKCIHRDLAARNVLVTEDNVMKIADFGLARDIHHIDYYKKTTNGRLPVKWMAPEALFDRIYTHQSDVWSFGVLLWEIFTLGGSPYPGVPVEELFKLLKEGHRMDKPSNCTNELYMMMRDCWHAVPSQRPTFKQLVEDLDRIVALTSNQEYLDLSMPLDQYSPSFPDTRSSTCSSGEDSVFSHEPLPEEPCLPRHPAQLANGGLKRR
Chain of FGFR4 (P22455 22-802, species assumed): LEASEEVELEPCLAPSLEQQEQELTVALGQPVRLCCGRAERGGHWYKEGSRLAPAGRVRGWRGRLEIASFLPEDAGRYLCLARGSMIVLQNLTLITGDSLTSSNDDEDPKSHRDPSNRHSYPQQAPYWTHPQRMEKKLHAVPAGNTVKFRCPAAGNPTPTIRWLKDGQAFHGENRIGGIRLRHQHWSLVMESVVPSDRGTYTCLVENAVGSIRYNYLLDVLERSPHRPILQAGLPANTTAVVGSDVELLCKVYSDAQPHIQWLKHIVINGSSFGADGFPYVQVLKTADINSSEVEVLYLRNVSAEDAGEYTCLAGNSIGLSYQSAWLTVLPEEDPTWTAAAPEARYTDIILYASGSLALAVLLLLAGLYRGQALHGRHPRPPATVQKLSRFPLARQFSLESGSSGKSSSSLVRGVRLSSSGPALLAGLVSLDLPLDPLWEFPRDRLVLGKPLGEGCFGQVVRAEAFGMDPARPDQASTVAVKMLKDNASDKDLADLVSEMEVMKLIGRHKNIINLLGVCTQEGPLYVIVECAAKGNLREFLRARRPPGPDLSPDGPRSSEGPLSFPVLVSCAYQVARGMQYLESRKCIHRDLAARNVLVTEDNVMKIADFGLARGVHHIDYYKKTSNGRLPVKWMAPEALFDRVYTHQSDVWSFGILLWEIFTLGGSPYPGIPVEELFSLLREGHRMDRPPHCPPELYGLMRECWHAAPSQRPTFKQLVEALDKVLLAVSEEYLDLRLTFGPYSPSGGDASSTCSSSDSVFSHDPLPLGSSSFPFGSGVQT

enzyme activity after washout [1]: recovered all of its activity
SMILES: O=C(c1ccc(Oc2ccccc2)cc1Cl)c1c[nH]c2ncnc(N[C@@H]3CC[C@@H](CO)OC3)c12 [ARQ-531]

JAK3 (IC50, nM) [2]: E (E: >1000 nM to ≤ 0,000 nM)
SMILES: C[C@H]1CC[C@@H](Nc2ncnc3[nH]ccc23)CN1S(=O)(=O)c1c(F)c(F)c(F)c(F)c1F [Compound 5-8, N-((3R,6S)-6-methyl-1-((perfluorophenyl)sulfonyl)piperidin-3-yl)-7H-pyrrolo[2,3-d]pyrimidin-4-amine]

IC50 ([6]; RL cells, read-out: IC50 in RL cells): 10300 nM
IC50 ([6]; TABLE 9, read-out: RL (IC50)): 10300 nM
IC50 ([6]; Table 14, RL human non-Hodgkin's lymphoma B cell line, read-out: RL (IC50)): 10300 nM
SMILES: C=CC(=O)N1CCC[C@@H](n2nc(-c3ccc(Oc4ccccc4)cc3)c3c(N)ncnc32)C1 [Ibrutinib, reference compound]
IC50 [7]: 26800 nM

IC50 [8]: 100 to 1000 nM
Percent residual BTK after 24 hours with test compound (5 μM) [3]: 75%
IC50 [4]: 0.1 to 10 nM
IC50 [5]: 10 to 300 nM
SMILES: COCCOc1ccc(Nc2ncc(F)c(Nc3cccc(NS(=O)(=O)c4c(F)c(F)c(F)c(F)c4F)c3)n2)cc1 [Compound 5-15, 2,3,4,5,6-pentafluoro-N-(3-((5-fluoro-2-((4-(2-methoxyethoxy)phenyl)amino)pyrimidin-4-yl)amino)phenyl)benzenesulfonamide]

More lines, now with the values behind:

SMILES: O=S(=O)(NCCNc1ncnc2[nH]ccc12)c1c(F)c(F)c(F)c(F)c1F [Compound 5-10, N-(2-((7H-pyrrolo[2,3-d]pyrimidin-4-yl)amino)ethyl)-2,3,4,5,6-pentafluorobenzene sulfonamide]
JAK3 (IC50, nM) [2]: E (E: >1000 nM to ≤ 0,000 nM)

SMILES: COCCOc1ccc(Nc2ncc(F)c(NCCCNS(=O)(=O)c3c(F)c(F)c(F)c(F)c3F)n2)cc1 [Compound 5-7, 2,3,4,5,6-pentafluoro-N-(3-((5-fluoro-2-((4-(2-methoxyethoxy)phenyl)amino)pyrimidin-4-yl)amino)propyl)benzenesulfonamide]
Percent residual BTK after 24 hours with test compound (5 μM) [3]: 63%
IC50 [4]: 300 to 2000 nM
IC50 [5]: 300 to 2000 nM

SMILES: CN(CCNc1ncnc2[nH]ccc12)S(=O)(=O)c1c(F)c(F)c(F)c(F)c1F [Compound 5-11, N-(2-((7H-pyrrolo[2,3-d]pyrimidin-4-yl)amino)ethyl)-2,3,4,5,6-pentafluoro-N-methylbenzenesulfonamide]
JAK3 (IC50, nM) [2]: E (E: >1000 nM to ≤ 0,000 nM)
